Data reported in article PMC12610573, “New Chlormequat-Based Ionic Liquids as Plant Resistance Inducers” (Molecules, 2025).

How the values were obtained:
[1] = tested on: Tobamovirus tabaci (tobacco mosaic virus, TMV) on Nicotiana tabacum cv. Xanthi; experiment: SAR induction assay: necrotic area after TMV inoculation of sprayed tobacco; format: in vivo; details: for SAR Induction (percentage of necrotic area on leaves): TMV inoculation after 7 days, read 7 days later, UTC 34.54; for pest or weed control at 125 µg/mL / pest or weed control at 250 µg/mL: topical, read-out: Reduction in Necrotic Area; for pest or weed control at 125 µg/mL / pest or weed control at 250 µg/mL / Reduction in Necrotic Area: compared with untreated control plants; for Percentage of necrotic spot coverage (leaf shown in supplementary figure): single leaf image
Method: Plants of Nicotiana tabacum cv. Xanthi were grown under greenhouse conditions at 25 °C and 50% relative humidity, under natural daylight during the May–August growing season, with a natural photoperiod. The plants were sprayed with solutions containing the tested compounds.
In all experiments, the TMV SL-1 isolate Tobamovirus (TMV) was used. To obtain a viral inoculum, Nicotiana tabacum cv. Samsun plants were sap-inoculated with previously virus-infected plant material. After the appearance of disease symptoms on the infected plants (leaf mosaic), the virus was isolated by sucrose density gradient centrifugation with 0.01 M Tris-HCl, pH 7.0, to prepare the infectious inoculum. The concentration of virus in the obtained preparation was determined spectrophotometrically. The samples of TMV were stored at −20 °C until use.
The tested active substances at a given concentration were sprayed on tobacco plants with three fully developed leaves. The volume of working solution used was equal to 10 mL per plant. The compounds were dissolved in a water/propylene glycol solution (95/5, v/v). The plants of the untreated control variant were sprayed with a water/propylene glycol solution (95/5, v/v) that was used for the preparation of solutions of the tested compounds. After seven days, the plants were mechanically inoculated using purified viral preparations (0.01 ng/mL as described in [34]).
The plants were inoculated with the TMV inoculum at a concentration of 3.8 × 10^−4 ng per leaf. For each variant of treatment, 3 plants were sprayed, and 3 leaves of each plant were analyzed. The entire experiment was performed in 2 replicates. Necrotic areas on the leaves were determined using ImageJ software.
The surface of a leaf or an area with necrotic spots is represented by a set of pixels in the image, which are counted by the program. Reduction in necrotic area (ISAR) is expressed by the following formula:(1) ISAR=100−(At/Ac∗100) where At is the ratio of the area of necrotic spots caused by viral infection that appeared on the leaf treated with the test substance to the whole area of the leaf; Ac is the ratio of the area of the necrotic spots caused by viral infection that appeared on the leaf of the control plant to the whole area of the leaf.
(§1) Statistical significance of the effect of the treatments of plants with tested compounds on the phytotoxicity and SAR induction was assessed with the ANOVA test performed using the Statistica program StatSoft with software version 9.1 (StatSoft Sp. z o.o., Kraków, Poland). The statistical assumptions of normality and homogeneity of variances were verified prior to conducting the ANOVA tests. Differences between the means were estimated with Tukey’s HSD test at the significance level of p = 0.05.

[2] = tested on: radish (Raphanus sativus) sprouts; experiment: Phytotoxicity test on radish sprouts; format: in vivo; details: for Reduction in Sprout Mass: compared with untreated control; for Mass of 25 Sprouts: radish, 5 days, UTC 3.09 g; for Phytotoxic effect on radish sprout mass: versus control
Method: Twenty five seeds of radish (Raphanus sativus) were placed on a filter tissue in a Petri dish. […] Then, sprouts were weighted. All variants of treatment were tested together, with 3 replications (plates) in each of 2 cycles performed. Results were subjected to statistical analysis as described in Section 4.8.
as §1

[3] = Solubility tests in representative solvents (Vogel protocol); details: 25 °C; for solubility: thermodynamic from solid
Method: The solubilities of the prepared ILs in ten representative solvents were determined according to the protocols from Vogel’s Textbook of Practical Organic Chemistry. The solvents chosen for the study were arranged in order of descending value of their Snyder polarity index: water—9.0, methanol—6.6, acetone—5.1, isopropanol—4.3, toluene—2.3, and hexane—0.0.

[4] = Thermogravimetric analysis (TGA), thermal stability; details: TGA under nitrogen, 10 °C/min; for Thermal Stability T5%onset: 5% weight loss onset; for Thermal Stability Tonset: decomposition onset
Method: TGA was performed on a TGA Q50 (Texas Instruments, Dallas, TX, USA) under nitrogen. Samples (5–10 mg) were heated from 25 °C to 500 °C at 10 °C/min with an isothermal step at 85 °C for 10 min. T5%onset and Tonset values were recorded.

Row | SMILES | SAR Induction (percentage of necrotic area on leaves) ([1]; 125 mg/L spray) | SAR Induction (percentage of necrotic area on leaves) ([1]; 250 mg/L spray) | Reduction in Sprout Mass ([2]; 125 mg/L) [%] | Mass of 25 Sprouts ([2]; 125 mg/L) | Mass of 25 Sprouts ([2]; 250 mg/L) | Reduction in Sprout Mass ([2]; 250 mg/L) [%] | Thermal Stability T5%onset [4] [°C] | Reduction in Necrotic Area ([1]; 125 mg/L) [%] | Reduction in Necrotic Area ([1]; 250 mg/L) [%] | Thermal Stability Tonset [4] [°C] | further results
1 | O=C(O)c1cccnc1 [Nicotinic acid] | 27.69 fg C % | 22.07 g B % | 10.79 | 2.76 gh B | 2.63 j AB g | – | – | – | – | – | pest or weed control at 125 µg/mL ([1]; 125 mg/L): 19.8%; pest or weed control at 250 µg/mL ([1]; 250 mg/L): 36.1%
2 | O=C(O)c1ccccc1O [Salicylic acid] | 26.60 fg C % | 25.06 g C % | 29.77 | 2.17 cd B g | 1.14 bc A g | 63.27 | – | – | – | – | Percentage of necrotic spot coverage (leaf shown in supplementary figure) ([1]; 125 mg/L): 23.67%; Percentage of necrotic spot coverage (leaf shown in supplementary figure) ([1]; 250 mg/L): 19.86%; pest or weed control at 125 µg/mL ([1]; 125 mg/L): 23%; pest or weed control at 250 µg/mL ([1]; 250 mg/L): 27.4%
3 | C[N+](C)(C)CCCl.O=C([O-])c1cc(Cl)cc(Cl)c1O [[CC][3,5-ClSal]] | 7.79 ab A % | 4.93 abc A % | 27.51 | 2.24 cde C g | 1.94 ef B g | 37.38 | 208.3 | 77.4 | 85.7 | – | Solubility in Hexane ([3]; Snyder polarity index 0.0): − (insoluble); Solubility in Toluene ([3]; Snyder polarity index 2.3): − (insoluble); Solubility in Isopropanol ([3]; Snyder polarity index 4.3): +/− (of limited solubility); Solubility in Acetone ([3]; Snyder polarity index 5.1): − (insoluble); Solubility in Methanol ([3]; Snyder polarity index 6.6): + (soluble); Solubility in Water ([3]; Snyder polarity index 9.0): +/− (of limited solubility)
4 | C[N+](C)(C)CCCl.O=C([O-])c1cccc(Cl)c1O [[CC][3-ClSal]] | 2.52 a AB % | 1.39 a A % | 15.97 | 2.60 fgh D | 1.96 ef C g | 36.68 | 196.2 | 92.7 | 96.0 | 136.1 | Solubility in Hexane ([3]; Snyder polarity index 0.0): − (insoluble); Solubility in Toluene ([3]; Snyder polarity index 2.3): − (insoluble); Solubility in Isopropanol ([3]; Snyder polarity index 4.3): +/− (of limited solubility); Solubility in Acetone ([3]; Snyder polarity index 5.1): − (insoluble); Solubility in Methanol ([3]; Snyder polarity index 6.6): + (soluble); Solubility in Water ([3]; Snyder polarity index 9.0): +/− (of limited solubility); Percentage of necrotic spot coverage (leaf shown in supplementary figure) ([1]; 125 mg/L): 0.79%; Percentage of necrotic spot coverage (leaf shown in supplementary figure) ([1]; 250 mg/L): 0.27%
5 | C[N+](C)(C)CCCl [[CC][Cl], Chlormequat chloride, reference compound] | – | – | 24.00 | 2.35 def B g | 2.08 fgh A | – | 255.0 | – | – | 259.8 | Solubility in Isopropanol [3]: remained insoluble; solubility ([3]; organic solvent or mixture, Solubility in Acetone, Snyder polarity index 5.1): < 33.3 mg/mL; solubility ([3]; organic solvent or mixture, Solubility in Hexane, Snyder polarity index 0.0): < 33.3 mg/mL; solubility ([3]; organic solvent or mixture, Solubility in Isopropanol, Snyder polarity index 4.3): < 33.3 mg/mL; solubility ([3]; organic solvent or mixture, Solubility in Methanol, Snyder polarity index 6.6): > 100 mg/mL; solubility ([3]; organic solvent or mixture, Solubility in Toluene, Snyder polarity index 2.3): < 33.3 mg/mL; solubility ([3]; water, Solubility in Water, Snyder polarity index 9.0): > 100 mg/mL
6 | C[N+](C)(C)CCCl.O=C([O-])c1ccncc1 [[CC][IsoNic]] | 24.51 ef A % | 21.48 g A % | 15.70 | 2.60 fgh C | 1.99 efg AB | 35.65 | 164.3 | 29.0 | 37.8 | 85.3 | –
7 | C[N+](C)(C)CCCl.O=C([O-])c1cccnc1 [[CC][Nic]] | 19.70 de B % | 11.52 def A % | 8.20 | 2.84 hi B g | 2.28 hi A g | 26.16 | 166.9 | 43.0 | 66.7 | 89.9 | Phytotoxic effect on radish sprout mass ([2]; 125 mg/L): no phytotoxic effect; Phytotoxic effect on radish sprout mass ([2]; 250 mg/L): significant decrease in the radish sprout mass
